What was measured:
[1] = system: IL-2 stimulated STAT5 phosphorylation on Tyr694 (JAK1/3); assay: JAK1/3 cellular target modulation: IL-2 stimulated phospho-STAT5 in PBMC; type: cell-based; settings: Homo sapiens, PBMC, IL-2 25 ng/ml, 1 hour compound preincubation, read-out: IL2-STAT5 Inhibition IC50
Source text: (§1) Target modulation was based upon the ability of a compound to inhibit JAK isoform specific phosphorylation of selected substrates. IL-2 stimulated STAT5 phosphorylation on Tyr694 was used to assess JAK1/3 compound selectivity. GM-CSF stimulated STAT5 phosphorylation on Tyr694 was used to assess JAK2 compound selectivity. IFNγ stimulated STAT1 phosphorylation on Tyr701 was used to assess JAK1/2 compound selectivity. For all three assays, human PBMC from frozen stocks were thawed, pelleted, resuspended in complete media (90% RPMI, 10% heat inactivated FBS, 10 mM HEPES, 47 μM 2-ME, pen/strep) and placed in wells of a 96 well V-bottom plate at 200,000 per well in 120 μl complete media. Compounds were added as 15 μl per well of 10× working stock solutions in complete media with 1% DMSO (or medium with 1% DMSO for controls) and placed on a plate shaker in a 37° C. incubator with 5% CO2 for 1 hour with gentle shaking (setting of 3). Stimulation used the addition of soluble cytokines. For the JAK1/3 phospho-STAT5 assay, 15 μl of 10× working stock recombinant human IL-2 was added to a final concentration of 25 ng/ml. For the JAK2 phospho-STAT5 assay, 15 μl of 10× working stock recombinant human GM-CSF was added to a final concentration of 5 ng/ml. For the JAK1/2 phospho-STAT1 assay, 15 μl of 10× working stock of recombinant human IFNγ was added to a final concentration of 10 ng/ml. Plates were then placed back on the plate shaker in the incubator for an additional 5, 5 and 10 minutes respectively upon which the plates were removed from the incubator, sealed with a plate sealer and the cells pelleted at 400×g for 5 minutes. After pelleting, the media was removed by aspiration and the cells were lysed in ELISA specific cell lysis buffer. The levels of phospho-STAT5 were determined using a Phospho (Tyr694)/Total STAT5a,b Whole Cell Lysate kit from Meso Scale Discovery. Levels of phospho-STAT1 were determined using a CST-PathScan Phospho-STAT1 (Tyr701) Sandwich ELISA kit.

[2] = system: IFNγ stimulated STAT1 phosphorylation on Tyr701 (JAK1/2); assay: JAK1/2 cellular target modulation: IFNγ stimulated phospho-STAT1 in PBMC; type: cell-based; settings: Homo sapiens, PBMC, IFNγ 10 ng/ml, 1 hour compound preincubation, read-out: Infγ-STAT1 IC50
Source text: as §1

JAK1 = JAK1 (Homo sapiens (Human), UniProt P23458); assay: JAK1 enzyme activity assay (Thermo Fisher SelectScreen Z-lyte); type: biochemical; settings: 1 hour kinase reaction, read-out: JAK1 Inhibition IC50
Method: The inhibitory potency of candidate compounds of JAK1 done at Thermo Fisher Scientific in their Selectscreen using a Z-lyte assay. The 2×JAK1/Tyr 06 mixture is prepared in 50 mM HEPES pH 6.5, 0.01% BRIJ-35, 10 mM MgCl2, 1 mM EGTA, 0.02% NaN3. The final 10 μL of the Kinase Reaction consists of 21.2-91.5 ng JAK1 and 2 μM Tyr 06 in 50 mM HEPES pH 7.0, 0.01% BRIJ-35, 10 mM MgCl2, 1 mM EGTA, 0.01% NaN3. After the 1 hour Kinase Reaction incubation, 5 μL of a 1:128 dilution of Development Reagent is added.
(§2) Background signal is defined in the absence of enzyme and uninhibited signal is defined in the presence of vehicle (2% DMSO) alone. Compounds were evaluated in an 11 point dose-response ranging from […] to 0.34 nM. IC50 values of compounds are determined using a 4 parameter logistical fit of emission ratio as a function of the concentration of compound.

JAK3 (a.a. 781-1124) = JAK3 (a.a. 781-1124) (Homo sapiens (Human), UniProt P52333); assay: JAK3 enzyme activity assay (SRCtide phosphorylation, Caliper); type: biochemical; settings: 2.5 nM JAK3, 1 μM SRCtide, 1 uM ATP, 40 minutes; read-out: JAK3 Inhibition IC50
Method: The activity of JAK3 (a.a. 781-1124, ThermoFisher) was quantified by measuring the phosphorylation of SRCtide (FAM-GEEPLYWSFPAKKK-NH2). Kinase reactions were run in a 384-well Greiner plate with 2% final DMSO concentration under the buffer conditions of 20 mM HEPES, pH 7.5, 10 mM MgCl2, 0.01% BSA, and 0.0005% Tween-20. The kinase reaction components were 2.5 nM JAK3, 1 μM SRCtide peptide and 1 uM ATP. Examples were tested in dose-response starting at 2 μM (11 concentrations, 3-fold serial dilution, duplicate reactions). The reactions were incubated at room temperature for 40 minutes, then stopped by adding a 1:1 volume of 30 mM EDTA in 20 mM HEPES, pH 7.5 (15 mM EDTA final). After the reaction was stopped, the phosphorylated and unphosphorylated peptides were separated and quantified using a Caliper LC3000/EZ-Reader system and HTS Well Analyzer Software (Caliper, A PerkinElmer Company, Hopkinton, Mass.). GraFit (Erithacus Software Ltd., Horley, U.K.) was used to calculate inhibitor potency by fitting dose-response data to the 4-parameter logistical IC50 equation.
as §2

Chain of JAK1 (P23458 whole entry): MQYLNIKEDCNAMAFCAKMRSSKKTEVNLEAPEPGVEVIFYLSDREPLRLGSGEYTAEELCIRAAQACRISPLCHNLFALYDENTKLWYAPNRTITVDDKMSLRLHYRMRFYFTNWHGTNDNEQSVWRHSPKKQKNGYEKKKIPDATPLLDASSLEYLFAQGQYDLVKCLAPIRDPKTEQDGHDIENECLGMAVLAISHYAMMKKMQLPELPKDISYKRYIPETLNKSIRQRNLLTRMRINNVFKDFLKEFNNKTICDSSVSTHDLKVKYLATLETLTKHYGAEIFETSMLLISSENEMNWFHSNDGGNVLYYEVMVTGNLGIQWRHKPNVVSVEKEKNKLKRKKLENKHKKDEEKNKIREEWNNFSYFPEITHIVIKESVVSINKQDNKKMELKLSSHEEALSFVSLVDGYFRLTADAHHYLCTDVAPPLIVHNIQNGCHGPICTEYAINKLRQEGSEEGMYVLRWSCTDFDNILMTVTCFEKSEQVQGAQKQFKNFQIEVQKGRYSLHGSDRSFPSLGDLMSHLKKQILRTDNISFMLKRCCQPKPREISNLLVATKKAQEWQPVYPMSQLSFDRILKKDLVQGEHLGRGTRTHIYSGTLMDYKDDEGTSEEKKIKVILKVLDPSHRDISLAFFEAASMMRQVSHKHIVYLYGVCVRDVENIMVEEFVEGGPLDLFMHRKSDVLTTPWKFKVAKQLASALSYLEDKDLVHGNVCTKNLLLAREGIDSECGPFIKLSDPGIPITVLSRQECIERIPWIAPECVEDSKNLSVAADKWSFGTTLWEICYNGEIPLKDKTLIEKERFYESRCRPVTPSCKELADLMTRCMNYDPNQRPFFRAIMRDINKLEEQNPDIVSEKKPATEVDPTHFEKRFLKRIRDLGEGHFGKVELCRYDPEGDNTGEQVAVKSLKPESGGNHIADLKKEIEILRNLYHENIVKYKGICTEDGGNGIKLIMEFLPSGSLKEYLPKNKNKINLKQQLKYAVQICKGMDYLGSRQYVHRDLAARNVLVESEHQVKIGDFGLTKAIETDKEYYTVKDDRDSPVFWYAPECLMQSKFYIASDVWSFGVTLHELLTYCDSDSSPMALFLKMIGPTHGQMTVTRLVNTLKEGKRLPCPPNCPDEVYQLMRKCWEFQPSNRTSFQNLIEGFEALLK
Chain of JAK3 (a.a. 781-1124) (P52333 781-1124): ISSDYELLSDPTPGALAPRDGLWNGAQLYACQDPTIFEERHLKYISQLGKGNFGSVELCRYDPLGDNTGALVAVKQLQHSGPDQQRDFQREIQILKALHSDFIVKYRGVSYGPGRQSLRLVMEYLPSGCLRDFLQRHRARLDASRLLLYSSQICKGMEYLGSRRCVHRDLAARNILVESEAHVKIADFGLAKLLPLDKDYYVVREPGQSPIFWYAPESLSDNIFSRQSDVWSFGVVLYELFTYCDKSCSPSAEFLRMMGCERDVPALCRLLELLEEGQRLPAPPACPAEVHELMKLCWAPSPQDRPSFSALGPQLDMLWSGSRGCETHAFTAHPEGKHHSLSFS

IC50 [1] [nM]	IC50 [2] [nM]	IC50 (JAK1) [nM]	IC50 (JAK3 (a.a. 781-1124)) [nM]	Structure (SMILES)
100 to 1000	> 1000	100 to 1000	100 to 1000	C=CC(=O)N1CCC[C@@H](Nc2c(C(=O)OCC)cnc3[nH]ccc23)C1 [Example 34, ethyl (R)-4-((1-acryloylpiperidin-3-yl)amino)-1H-pyrrolo[2,3-b]pyridine-5-carboxylate]
≤ 100	100 to 1000	≤ 10	≤ 10	CCOC(=O)c1cnc2[nH]ccc2c1N[C@H]1CC[C@H](CS(=O)(=O)NC)CC1 [Example 92, ethyl 4-(((1r,4r)-4-((N-methylsulfamoyl)methyl)cyclohexyl)amino)-1H-pyrrolo[2,3-b]pyridine-5-carboxylate]
100 to 1000	> 1000	10 to 100	10 to 100	CCOC(=O)c1cnc2[nH]ccc2c1NC1CCC(OCCC#N)C1 (stereo not shown) [Example 113, ethyl 4-((3-(2-cyanoethoxy)cyclopentyl)amino)-1H-pyrrolo[2,3-b]pyridine-5-carboxylate]
≤ 100	≤ 100	≤ 10	≤ 10	CCOC(=O)c1cnc2[nH]ccc2c1N[C@@H]1CCCN(C(=O)CC#N)C1 [Example 117, ethyl (R)-4-((1-(2-cyanoacetyl)piperidin-3-yl)amino)-1H-pyrrolo[2,3-b]pyridine-5-carboxylate]
≤ 100	100 to 1000	≤ 10	10 to 100	COC(=O)c1cnc2[nH]ccc2c1N[C@H]1CN(C(=O)CC#N)CC[C@H]1C [Example 118, methyl 4-(((3R,4R)-1-(2-cyanoacetyl)-4-methylpiperidin-3-yl)amino)-1H-pyrrolo[2,3-b]pyridine-5-carboxylate]
≤ 100	100 to 1000	≤ 10	≤ 10	CCOC(=O)c1cnc2[nH]ccc2c1N[C@@H]1CCCN(CCC#N)C1 [Example 123, ethyl (R)-4-((1-(2-cyanoethyl)piperidin-3-yl)amino)-1H-pyrrolo[2,3-b]pyridine-5-carboxylate]
100 to 1000	> 1000	10 to 100	10 to 100	CC(C)OC(=O)c1cnc2[nH]ccc2c1N[C@H]1CN(C(=O)CC#N)CC[C@H]1C [Example 124, isopropyl 4-(((3R,4R)-1-(2-cyanoacetyl)-4-methylpiperidin-3-yl)amino)-1H-pyrrolo[2,3-b]pyridine-5-carboxylate]
≤ 100	100 to 1000	≤ 10	≤ 10	CCCOC(=O)c1cnc2[nH]ccc2c1N[C@H]1CN(C(=O)CC#N)CC[C@H]1C [Example 125, propyl 4-(((3R,4R)-1-(2-cyanoacetyl)-4-methylpiperidin-3-yl)amino)-1H-pyrrolo[2,3-b]pyridine-5-carboxylate]
100 to 1000	> 1000	10 to 100	10 to 100	CCOC(=O)c1cnc2[nH]ccc2c1N[C@H]1CN(C(=O)C2(C#N)CC2)CC[C@H]1C [Example 126, ethyl 4-(((3R,4R)-1-(1-cyanocyclopropane-1-carbonyl)-4-methylpiperidin-3-yl)amino)-1H-pyrrolo[2,3-b]pyridine-5-carboxylate]
≤ 100	100 to 1000	≤ 10	10 to 100	CCOC(=O)c1cnc2[nH]ccc2c1N[C@H]1CN(C(=O)C(C)C#N)CC[C@H]1C (stereo partly drawn) [Example 127, ethyl 4-(((3R,4R)-1-(2-cyanopropanoyl)-4-methylpiperidin-3-yl)amino)-1H-pyrrolo[2,3-b]pyridine-5-carboxylate]
≤ 100	> 1000	10 to 100	≤ 10	CCOC(=O)c1cnc2[nH]ccc2c1N[C@@H]1CCCN(C(=O)C2(C#N)CC2)C1 [Example 128, ethyl (R)-4-((1-(1-cyanocyclopropane-1-carbonyl)piperidin-3-yl)amino)-1H-pyrrolo[2,3-b]pyridine-5-carboxylate]
≤ 100	100 to 1000	≤ 10	≤ 10	CCOC(=O)c1cnc2[nH]ccc2c1N[C@@H]1CCCN(C(=O)C(C)C#N)C1 (stereo partly drawn) [Example 129, ethyl 4-(((3R)-1-(2-cyanopropanoyl)piperidin-3-yl)amino)-1H-pyrrolo[2,3-b]pyridine-5-carboxylate]
100 to 1000	100 to 1000	≤ 10	≤ 10	CCCOC(=O)c1cnc2[nH]ccc2c1N[C@@H]1CCCN(C(=O)CC#N)C1 [Example 130, propyl (R)-4-((1-(2-cyanoacetyl)piperidin-3-yl)amino)-1H-pyrrolo[2,3-b]pyridine-5-carboxylate]
100 to 1000	100 to 1000	10 to 100	10 to 100	COCCOC(=O)c1cnc2[nH]ccc2c1N[C@@H]1CCCN(C(=O)CC#N)C1 [Example 131, 2-methoxyethyl (R)-4-((1-(2-cyanoacetyl)piperidin-3-yl)amino)-1H-pyrrolo[2,3-b]pyridine-5-carboxylate]
≤ 100	100 to 1000	≤ 10	≤ 10	CCOC(=O)c1cnc2[nH]ccc2c1NC1CCCC(CCC#N)C1 (stereo not shown) [Example 132, ethyl 4-((3-(2-cyanoethyl)cyclohexyl)amino)-1H-pyrrolo[2,3-b]pyridine-5-carboxylate]
100 to 1000	> 1000	10 to 100	10 to 100	CCOC(=O)c1cnc2[nH]ccc2c1NC1CCCC(O)C1 (stereo not shown) [Example 141, ethyl 4-((3-hydroxycyclohexyl)amino)-1H-pyrrolo[2,3-b]pyridine-5-carboxylate]
≤ 100	100 to 1000	≤ 10	10 to 100	CCOC(=O)c1cnc2[nH]ccc2c1NC1CCC(O)C(CC#N)C1 (stereo not shown) [Example 142, ethyl 4-((3-(cyanomethyl)-4-hydroxycyclohexyl)amino)-1H-pyrrolo[2,3-b]pyridine-5-carboxylate]
100 to 1000	100 to 1000	10 to 100	10 to 100	CCOC(=O)c1cnc2[nH]ccc2c1N[C@@H]1CCCN(C(=O)C(C)(C)C#N)C1 [Example 144, ethyl (R)-4-((1-(2-cyano-2-methylpropanoyl)piperidin-3-yl)amino)-1H-pyrrolo[2,3-b]pyridine-5-carboxylate]
≤ 100	100 to 1000	≤ 10	10 to 100	N#CCC(=O)N1CCC[C@@H](Nc2c(C(=O)OCC3CC3)cnc3[nH]ccc23)C1 [Example 145, cyclopropylmethyl (R)-4-((1-(2-cyanoacetyl)piperidin-3-yl)amino)-1H-pyrrolo[2,3-b]pyridine-5-carboxylate]
